The structures appear in SMILES notation.

In data set [1] the target is Receptor tyrosine-protein kinase erbB-4 (Homo sapiens) (UniProt Q15303). The data set can be described thus: Inhibition of ERBB4 (unknown origin) at 100 nM.
In data set [2] the target is Dual specificity protein kinase CLK1 (Homo sapiens) (UniProt P49759). Description: Inhibition of CLK1 (unknown origin) at 100 nM.
Data set [3] addresses Dual specificity protein kinase TTK (Homo sapiens) (UniProt P33981). The data set can be described thus: Inhibition of TTK (unknown origin) at 100 nM.
The target of data set [4] is Serine/threonine-protein kinase PAK 5 (Homo sapiens) (UniProt Q9P286). Description: Inhibition of PAK7 (unknown origin) at 100 nM.
Serine/threonine-protein kinase PAK 5 (Homo sapiens), sequence (Q9P286 whole entry, looked up): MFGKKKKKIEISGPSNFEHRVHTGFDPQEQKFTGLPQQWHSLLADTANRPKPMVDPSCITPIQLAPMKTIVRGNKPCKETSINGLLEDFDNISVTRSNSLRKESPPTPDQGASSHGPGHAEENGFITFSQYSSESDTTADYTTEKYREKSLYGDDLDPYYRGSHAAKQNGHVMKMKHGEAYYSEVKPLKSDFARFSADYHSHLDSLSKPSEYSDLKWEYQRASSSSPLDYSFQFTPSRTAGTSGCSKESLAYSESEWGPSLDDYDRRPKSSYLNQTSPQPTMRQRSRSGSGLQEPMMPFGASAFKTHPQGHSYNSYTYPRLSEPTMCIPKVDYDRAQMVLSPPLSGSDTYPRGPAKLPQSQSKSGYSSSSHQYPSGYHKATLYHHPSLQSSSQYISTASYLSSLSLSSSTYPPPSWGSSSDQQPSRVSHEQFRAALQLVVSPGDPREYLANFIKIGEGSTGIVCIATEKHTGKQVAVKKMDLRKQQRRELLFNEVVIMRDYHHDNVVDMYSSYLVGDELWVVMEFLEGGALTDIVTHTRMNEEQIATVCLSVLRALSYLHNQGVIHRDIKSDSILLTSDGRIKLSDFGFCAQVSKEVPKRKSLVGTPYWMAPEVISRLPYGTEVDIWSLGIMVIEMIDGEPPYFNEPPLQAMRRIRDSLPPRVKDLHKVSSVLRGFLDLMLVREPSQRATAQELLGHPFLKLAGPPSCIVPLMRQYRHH
Data set [5] concerns the target Sphingosine kinase 2 (Homo sapiens) (UniProt Q9NRA0). Description: Inhibition of SPHK2 (unknown origin) at 100 nM.
For data set [6], the target named is Beta-adrenergic receptor kinase 1 (Homo sapiens) (UniProt P25098). Description: Inhibition of GRK2 (unknown origin) at 100 nM.
Beta-adrenergic receptor kinase 1 (Homo sapiens), sequence (P25098 whole entry): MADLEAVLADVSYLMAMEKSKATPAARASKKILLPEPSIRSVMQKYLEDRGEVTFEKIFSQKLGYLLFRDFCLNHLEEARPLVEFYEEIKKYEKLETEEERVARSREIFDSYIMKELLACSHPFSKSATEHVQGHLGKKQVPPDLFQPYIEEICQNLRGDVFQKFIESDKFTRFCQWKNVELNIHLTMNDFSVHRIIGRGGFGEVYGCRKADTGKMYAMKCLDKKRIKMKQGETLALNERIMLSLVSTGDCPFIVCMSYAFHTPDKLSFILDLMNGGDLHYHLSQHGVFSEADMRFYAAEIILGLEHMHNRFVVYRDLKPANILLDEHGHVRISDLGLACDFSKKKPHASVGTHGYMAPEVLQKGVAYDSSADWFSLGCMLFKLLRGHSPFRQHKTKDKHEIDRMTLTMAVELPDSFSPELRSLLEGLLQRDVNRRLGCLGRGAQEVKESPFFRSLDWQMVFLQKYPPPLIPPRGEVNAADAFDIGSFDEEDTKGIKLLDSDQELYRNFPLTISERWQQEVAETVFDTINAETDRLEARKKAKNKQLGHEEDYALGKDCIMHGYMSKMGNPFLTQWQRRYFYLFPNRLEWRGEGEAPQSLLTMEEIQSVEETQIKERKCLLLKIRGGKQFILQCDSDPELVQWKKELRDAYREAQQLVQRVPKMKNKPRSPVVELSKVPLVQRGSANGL
The target in data set [7] is Tyrosine-protein kinase CSK (Homo sapiens) (UniProt P41240). The data set can be described thus: Inhibition of CSK (unknown origin) at 100 nM.
The nature of data set [8]: Total AUC in rat at 5 mg/kg, po. The class given is ADME, organism-based. Set-up: dose 5 mg/kg, time AUCmax, route oral. The following applies: in vivo.
For data set [9], the target named is Ephrin type-A receptor 8 (Homo sapiens) (UniProt P29322). Description: Inhibition of EPHA8 (unknown origin) at 100 nM.
Ephrin type-A receptor 8 (Homo sapiens), sequence (P29322 whole entry): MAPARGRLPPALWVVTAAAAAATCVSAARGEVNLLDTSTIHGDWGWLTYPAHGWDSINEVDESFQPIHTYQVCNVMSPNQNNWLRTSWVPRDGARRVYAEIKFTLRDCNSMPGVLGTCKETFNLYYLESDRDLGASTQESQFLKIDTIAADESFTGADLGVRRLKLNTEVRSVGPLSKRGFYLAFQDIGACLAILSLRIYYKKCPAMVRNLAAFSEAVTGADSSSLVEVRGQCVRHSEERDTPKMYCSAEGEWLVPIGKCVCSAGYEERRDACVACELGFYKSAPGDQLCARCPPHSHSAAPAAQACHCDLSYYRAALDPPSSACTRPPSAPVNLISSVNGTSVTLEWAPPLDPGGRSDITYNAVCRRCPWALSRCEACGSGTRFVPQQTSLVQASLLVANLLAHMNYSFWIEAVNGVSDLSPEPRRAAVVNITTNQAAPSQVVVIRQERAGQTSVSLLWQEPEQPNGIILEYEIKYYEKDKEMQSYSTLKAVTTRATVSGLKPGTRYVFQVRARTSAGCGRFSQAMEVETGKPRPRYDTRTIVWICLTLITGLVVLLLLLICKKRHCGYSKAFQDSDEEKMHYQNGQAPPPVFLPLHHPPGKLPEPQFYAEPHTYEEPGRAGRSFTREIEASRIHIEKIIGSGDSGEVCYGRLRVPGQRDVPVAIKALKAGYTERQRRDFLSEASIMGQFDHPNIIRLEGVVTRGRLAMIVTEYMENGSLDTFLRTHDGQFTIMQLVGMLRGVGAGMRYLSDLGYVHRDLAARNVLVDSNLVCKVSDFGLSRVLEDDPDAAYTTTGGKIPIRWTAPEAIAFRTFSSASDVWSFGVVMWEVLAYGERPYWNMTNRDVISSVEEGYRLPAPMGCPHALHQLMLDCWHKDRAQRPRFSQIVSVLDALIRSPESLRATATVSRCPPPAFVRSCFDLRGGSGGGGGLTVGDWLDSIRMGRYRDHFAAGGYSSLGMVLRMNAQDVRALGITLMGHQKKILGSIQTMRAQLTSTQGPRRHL
The target in data set [10] is Dual specificity protein kinase CLK3 (Homo sapiens) (UniProt P49761). Description: Inhibition of CLK3 (unknown origin) at 100 nM.
For data set [11], the target named is Bone morphogenetic protein receptor type-1A (Homo sapiens) (UniProt P36894). Description: Inhibition of BMPR1A (unknown origin) at 100 nM.
Bone morphogenetic protein receptor type-1A (Homo sapiens), sequence (P36894 whole entry): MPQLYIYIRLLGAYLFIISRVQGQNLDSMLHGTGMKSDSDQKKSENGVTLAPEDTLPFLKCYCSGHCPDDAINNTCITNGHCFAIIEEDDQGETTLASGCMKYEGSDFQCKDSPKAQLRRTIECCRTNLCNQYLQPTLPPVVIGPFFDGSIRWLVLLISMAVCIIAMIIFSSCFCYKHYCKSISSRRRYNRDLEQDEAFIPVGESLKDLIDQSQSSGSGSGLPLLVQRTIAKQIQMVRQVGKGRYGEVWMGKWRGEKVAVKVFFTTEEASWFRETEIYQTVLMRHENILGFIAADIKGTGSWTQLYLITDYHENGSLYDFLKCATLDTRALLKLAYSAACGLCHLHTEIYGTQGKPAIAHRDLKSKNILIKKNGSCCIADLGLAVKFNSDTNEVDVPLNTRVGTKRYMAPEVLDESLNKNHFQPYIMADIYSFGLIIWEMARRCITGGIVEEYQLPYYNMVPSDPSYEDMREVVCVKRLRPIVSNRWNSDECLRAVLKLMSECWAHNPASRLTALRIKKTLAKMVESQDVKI
Data set [12] addresses Mitogen-activated protein kinase 9 (Homo sapiens) (UniProt P45984). Description: Inhibition of JNK2 (unknown origin) at 100 nM.
Data set [13] addresses MAP/microtubule affinity-regulating kinase 4 (Homo sapiens) (UniProt Q96L34). Description: Inhibition of MARK4 (unknown origin) at 100 nM.
Data set [14] concerns the target Serine/threonine-protein kinase 16 (Homo sapiens) (UniProt O75716). The data set can be described thus: Inhibition of STK16 (unknown origin) at 100 nM.

Sphingosine kinase 2 (Homo sapiens), sequence (Q9NRA0 whole entry): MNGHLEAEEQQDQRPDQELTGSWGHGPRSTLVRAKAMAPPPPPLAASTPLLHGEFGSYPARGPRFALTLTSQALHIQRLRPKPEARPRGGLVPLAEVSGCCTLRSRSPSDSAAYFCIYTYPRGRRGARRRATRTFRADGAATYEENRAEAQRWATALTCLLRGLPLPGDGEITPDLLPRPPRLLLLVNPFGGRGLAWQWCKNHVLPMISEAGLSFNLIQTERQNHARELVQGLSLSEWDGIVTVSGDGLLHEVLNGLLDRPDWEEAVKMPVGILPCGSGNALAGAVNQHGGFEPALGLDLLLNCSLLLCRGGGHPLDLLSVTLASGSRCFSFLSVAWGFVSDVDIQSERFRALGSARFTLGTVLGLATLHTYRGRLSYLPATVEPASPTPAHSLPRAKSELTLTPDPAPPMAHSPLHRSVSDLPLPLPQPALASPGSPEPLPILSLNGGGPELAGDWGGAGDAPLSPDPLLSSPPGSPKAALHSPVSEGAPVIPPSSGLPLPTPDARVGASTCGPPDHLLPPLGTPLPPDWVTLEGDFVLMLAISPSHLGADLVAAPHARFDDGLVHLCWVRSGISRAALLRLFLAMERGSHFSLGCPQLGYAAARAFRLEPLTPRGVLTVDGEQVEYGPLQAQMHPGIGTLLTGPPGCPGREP
Serine/threonine-protein kinase 16 (Homo sapiens), sequence (O75716 whole entry): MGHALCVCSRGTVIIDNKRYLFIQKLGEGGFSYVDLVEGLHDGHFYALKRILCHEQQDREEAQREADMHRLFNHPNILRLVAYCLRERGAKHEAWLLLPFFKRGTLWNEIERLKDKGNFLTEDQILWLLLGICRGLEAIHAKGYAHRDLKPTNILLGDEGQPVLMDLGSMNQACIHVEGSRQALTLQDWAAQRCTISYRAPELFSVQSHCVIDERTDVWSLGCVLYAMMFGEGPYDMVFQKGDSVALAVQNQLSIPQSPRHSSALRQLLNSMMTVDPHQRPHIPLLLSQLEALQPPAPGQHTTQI
Dual specificity protein kinase CLK1 (Homo sapiens), sequence (P49759 whole entry, looked up): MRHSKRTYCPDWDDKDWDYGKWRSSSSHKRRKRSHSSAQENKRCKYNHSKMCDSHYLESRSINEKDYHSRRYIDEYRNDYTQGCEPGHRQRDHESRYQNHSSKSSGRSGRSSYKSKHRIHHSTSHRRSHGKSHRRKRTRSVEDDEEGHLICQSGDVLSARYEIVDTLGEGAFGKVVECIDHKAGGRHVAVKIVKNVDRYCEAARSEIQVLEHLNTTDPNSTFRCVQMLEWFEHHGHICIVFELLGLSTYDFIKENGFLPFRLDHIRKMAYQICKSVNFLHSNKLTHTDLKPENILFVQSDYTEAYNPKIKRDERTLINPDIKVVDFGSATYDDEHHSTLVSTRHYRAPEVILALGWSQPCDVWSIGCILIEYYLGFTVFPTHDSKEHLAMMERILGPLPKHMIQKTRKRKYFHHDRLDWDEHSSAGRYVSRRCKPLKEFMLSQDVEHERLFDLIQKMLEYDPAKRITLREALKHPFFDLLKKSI
Mitogen-activated protein kinase 9 (Homo sapiens), sequence (P45984 whole entry, looked up): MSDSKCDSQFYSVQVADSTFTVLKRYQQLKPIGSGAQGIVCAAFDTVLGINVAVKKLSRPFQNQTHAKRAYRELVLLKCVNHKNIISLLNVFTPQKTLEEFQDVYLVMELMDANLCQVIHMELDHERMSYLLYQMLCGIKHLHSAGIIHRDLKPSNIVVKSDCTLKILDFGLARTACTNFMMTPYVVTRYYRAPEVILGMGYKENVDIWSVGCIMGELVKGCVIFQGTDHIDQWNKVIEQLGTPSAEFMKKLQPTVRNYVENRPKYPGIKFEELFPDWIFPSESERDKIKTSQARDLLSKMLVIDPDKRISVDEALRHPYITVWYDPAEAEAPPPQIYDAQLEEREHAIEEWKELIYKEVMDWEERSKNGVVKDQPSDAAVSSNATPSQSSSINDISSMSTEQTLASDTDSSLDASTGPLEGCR

Turning to `CC1(C)OCc2c(Nc3n[nH]c4ccccc34)nc(-c3cn[nH]c3)nc21`, the inhibition in [1] is 89.9%; in data set [2] it was 7.3%; in data set [3], 4.3%; in data set [4], -1.8%; in data set [5] it was -9.8%; in [6] it was -0.6%. In addition, the inhibition amounted to 3.7% in [7]; 24.9% in data set [9]; 3.3% in data set [10]; 16.8% in [11]; 44.8% in data set [12]; 2.5% in data set [13]. Besides, the inhibition in [14] was determined as 29.5%. Moreover, the area under the curve (AUC) in data set [8] stood at 0.37 µM·h.

The inhibition is the relative decrease from the control value, in per cent. Usually AUC stands for concentration integrated over time. Higher therefore signals more exposure.
